Article PMC3158675, “Effective inhibitors of the essential kinase PknB and their potential as anti-mycobacterial agents” (Tuberculosis (Edinburgh, Scotland), 2011)

Legend:
Assay type in all cases: cell-based
[1] = system: M. tuberculosis; assay: Alamar blue MIC with cell wall weakening agent ethambutol at 0.5 MIC
[2] = system: M. smegmatis fbpA mutant; conditions: mutant compared with wild type
[3] = system: M. tuberculosis; assay: Alamar blue MIC with efflux pump inhibitors reserpine and verapamil; conditions: reserpine or verapamil at 20 or 40 μg/ml

| Structure (SMILES) | Improvement of MIC in M. smegmatis fbpA mutant [2] | also measured |
| --- | --- | --- |
| CO[C@H]1/C=C/O[C@@]2(C)Oc3c(C)c(O)c4c(O)c(c(/C=N/N5CCN(C)CC5)c(O)c4c3C2=O)NC(=O)/C(C)=C\C=C\[C@H](C)[C@H](O)[C@@H](C)[C@@H](O)[C@@H](C)[C@H](OC(C)=O)[C@@H]1C [rifampicin] |  | Reduction of MIC in the presence of sub-inhibitory ethambutol [1]: 4 fold |
| CC[C@@H](CO)NCCN[C@@H](CC)CO [ethambutol] | not improved |  |
| CC[C@H]1OC(=O)[C@H](C)[C@@H](O[C@H]2C[C@@](C)(OC)[C@@H](O)[C@H](C)O2)[C@H](C)[C@@H](O[C@@H]2O[C@H](C)C[C@H](N(C)C)[C@H]2O)[C@](C)(O)C[C@@H](C)C(=O)[C@H](C)[C@@H](O)[C@]1(C)O [erythromycin] | 8 fold |  |
| CC[n+]1c(-c2ccccc2)c2cc(N)ccc2c2ccc(N)cc21 [ethidium bromide] |  | Decrease of MIC with efflux pump inhibitor [3]: 4 fold |
| [H]/N=C(/N)N[C@H]1[C@H](O)[C@@H](O)[C@H](O[C@@H]2O[C@@H](C)[C@](O)(C=O)[C@H]2O[C@@H]2O[C@@H](CO)[C@H](O)[C@@H](O)[C@@H]2NC)[C@@H](N/C(N)=N\[H])[C@@H]1O [streptomycin] | not improved |  |
| CN[C@H](CC(C)C)C(=O)N[C@H]1C(=O)N[C@@H](CC(N)=O)C(=O)N[C@H]2C(=O)N[C@H]3C(=O)N[C@H](C(=O)N[C@H](C(=O)O)c4cc(O)cc(O)c4-c4cc3ccc4O)[C@H](O)c3ccc(c(Cl)c3)Oc3cc2cc(c3O[C@@H]2O[C@H](CO)[C@@H](O)[C@H](O)[C@H]2O[C@H]2C[C@](C)(N)[C@H](O)[C@H](C)O2)Oc2ccc(cc2Cl)[C@H]1O [vancomycin] | 16 fold |  |
